Where a name gives a salt, the structure may show the parent alone.
Test system: MTT (mouse pheochromocytoma)
Experiment: IC50 of cell viability (ATP content)
Settings: (24 or 48 h)
Procedure, shortened: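 Each well of a white 1536-well plate received 5 µl of MTT mouse pheochromocytoma cells at 200,000 cells/ml in DMEM containing 5% FBS and 1% horse serum. After overnight culture at 37°C, 5% CO2, cells were exposed for 24 or 48 hrs to 23 nl of library compound in DMSO, pinned at 8 final concentrations from 0.5 nM to 46 µM. CellTiter-Glo luminescence was read after 15 minutes, and IC50 was obtained from a four-parameter logistic fit of signals normalised to positive-control and DMSO wells.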

Compound | IC50 of cell viability
N[S+](=O)([O-])c1cc2c(cc1C(F)(F)F)NCN[S+]2(=O)[O-] [Hydroflumethiazide] | > 46 µM
Oc1ccc(O)cc1 [Hydroquinone] | > 46 µM
O.O.O=S([O-])CO.[Na+] [Hydroxymethanesulfinic acid monosodium salt dihydrate] | > 46 µM
CN[C@H]1C[C@@H](N)[C@H](O)[C@@H](O[C@@H]2O[C@H](CO)[C@H](O)[C@@H]3O[C@]4(O[C@@H]23)O[C@H]([C@@H](N)CO)[C@H](O)[C@@H](O)[C@H]4O)[C@@H]1O [Hygromycin B] | > 46 µM
C\C1=C\C(=O)OC2=C1C=CC(=C2)O [Hymecromone] | > 46 µM
CCCCCN(C)CC[C@@](O)(P(=O)([O-])O)P(=O)(O)O [IBANDRONATE SODIUM] | > 46 µM
CC(=O)[C@]1(O)Cc2c(O)c3c(c(O)c2[C@@H](O[C@H]2C[C@H](N)[C@H](O)[C@H](C)O2)C1)C(=O)c1ccccc1C3=O [IDARUBICIN HYDROCHLORIDE] | > 46 µM
C1C\N=C(/N1)C2COC3=C(O2)C=CC=C3 (stereo not drawn) [IDAZOXAN] | > 46 µM
CC(C(O)c1ccc(O)cc1)N1CCC(Cc2ccccc2)CC1 (stereo not drawn) [IFENPRODIL] | > 46 µM
CNC(=O)[C@H](Cc1c[nH]c2ccccc12)NC(=O)[C@@H](CC(=O)NO)CC(C)C [ILOMASTATUM] | > 46 µM
Cc1ccc(NC(=O)c2ccc(CN3CCN(C)CC3)cc2)cc1Nc1nccc(-c2cccnc2)n1 [IMATINIB MESYLATE] | > 46 µM
NC1=NC(=O)N2CC12 (stereo not drawn) [IMEXON] | > 46 µM
CCOC(=O)[C@H](CCc1ccccc1)N[C@@H](C)C(=O)N1C(=O)N(C)C[C@H]1C(=O)O [IMIDAPRIL HYDROCHLORIDE] | > 46 µM
CCn1ccnc1CC1COc2ccccc2O1 (stereo not drawn) [IMILOXAN] | > 46 µM
CN(C)CCCN1c2ccccc2CCc2ccccc21 [IMIPRAMINE] | > 46 µM
CC(C)=CCOC1=C2OC(=O)\C=C/C2=CC3=C1OC=C3 [IMPERATORIN] | > 46 µM
CC1Cc2ccccc2N1NC(=O)c1ccc(Cl)c([S+](N)(=O)[O-])c1 (stereo not drawn) [INDAPAMIDE] | > 46 µM
O=C1/C(=C2\Nc3ccccc3C2=O)Nc2ccccc21 [INDIGO] | > 46 µM
CC(C)(C)NC(=O)[C@@H]1CN(Cc2cccnc2)CCN1C[C@@H](O)C[C@@H](Cc1ccccc1)C(=O)N[C@H]1c2ccccc2C[C@H]1O [INDINAVIR SULFATE] | > 46 µM
CC1(C)C(/C=C/C=C/C=C/C=C2\N(CCCCS(=O)(=O)[O-])c3ccc4ccccc4c3C2(C)C)=[N+](CCCCS(=O)(=O)[O-])c2ccc3ccccc3c21 [INDOCYANINE GREEN] | > 46 µM
c1ccc2[nH]ccc2c1 [INDOLUM] | > 46 µM
CC(C(=O)O)c1ccc(N2Cc3ccccc3C2=O)cc1 (stereo not drawn) [INDOPROFEN] | > 46 µM
O=C(NC1CCN(CCc2c[nH]c3ccccc23)CC1)c1ccccc1 [INDORAMIN HYDROCHLORIDE] | > 46 µM
OC1C(O)C(O)C(O)C(O)C1O (stereo not drawn) [INOSITOL] | > 46 µM
OC[C@@H]1O[C@](CO)(O[C@H]2O[C@H](CO)[C@@H](O)[C@H](O)[C@H]2O)[C@H](O)[C@H]1O [INULIN (HYDROXYMETHYL, C-14)] | > 46 µM

Compound | IC50 of cell viability
Cc1c(I)c(=O)n(-c2ccccc2)n1C [IODOANTIPYRINE] | > 46 µM
O=C(O)CNC(=O)c1ccccc1I [IODOHIPPURATE SODIUM, I-123] | > 46 µM
[O-]C(=O)C1=CC=CC=C1C(C2=CC(=C([O-])C(=C2)I)I)=C\3/C=C(I)\C(=O)\C(=C3)I [IODOPHTHALEINUM NATRICUM] | > 46 µM
CCOC(=O)c1ncn2c1CN(C)C(=O)c1c(I)cccc1-2 [IOMAZENIL] | > 46 µM
Cl.Nc1c2c(nc3c1CCC3)CCCC2.O [IPIDACRINE HYDROCHLORIDE HYDRATE] | > 46 µM
CN(C)/C=N/c1c(I)cc(I)c(CCC(=O)O)c1I [IPODATE CALCIUM] | > 46 µM
CC(C)CCCC(C)NC(C)C (stereo not drawn) [IPROHEPTINE HYDROCHLORIDE] | > 46 µM
CC(C)NNC(=O)c1ccncc1.O=[S+]([O-])(O)O [IPRONIAZID SULFATE] | > 46 µM
CC(C)c1ncc([N+](=O)[O-])n1C [IPRONIDAZOLE] | > 46 µM
CCCCC/1=N/C2(CCCC2)C(=O)N1CC3=CC=C(C=C3)C4=CC=CC=C4C5=NN=N[NH]5 [IRBESARTAN] | > 46 µM
Nc1nc(N)nc(-c2cc(Cl)ccc2Cl)n1 [IRSOGLADINE MALEATE] | > 46 µM
CC(C)NCC(O)COc1ccccc1-n1cccc1 (stereo not drawn) [ISAMOLTANE] | > 46 µM
CC(C)Cn1cnc2c1c(=O)n(C)c(=O)n2C [ISBUFYLLINUM] | > 46 µM
FC(F)OC(Cl)C(F)(F)F (stereo not drawn) [ISOFLURANE] | > 46 µM
CCC(C)[C@@H](N)C(=O)O (stereo partly drawn) [ISOLEUCINE] | > 46 µM
CCC(C)C(N)C(=O)O (stereo not drawn) [ISOLEUCINE] | > 46 µM
CC[C@@H](C)C(N)C(=O)O (stereo partly drawn) [ISOLEUCINE] | > 46 µM
O=C(NNC[S+](=O)([O-])O)c1ccncc1 [ISONIAZID SODIUM METHANESULFONATE] | > 46 µM
Cc1c(C(C)C)c(=O)n(-c2ccccc2)n1C [ISOPROPYLANTIPYRINE] | > 46 µM
CC(C)NCC(O)c1ccc(O)c(O)c1 (stereo not drawn) [ISOPROTERENOL] | > 46 µM
O=[N+]([O-])O[C@H]1CO[C@H]2[C@@H]1OC[C@H]2O [ISOSORBIDE MONONITRATE] | > 46 µM
O[C@@H]1CO[C@H]2[C@@H]1OC[C@@H]2O [ISOSORBIDE] | > 46 µM
C[C@H](CN1c2ccccc2Sc2cccnc21)N(C)C [ISOTHIPENDYL HYDROCHLORIDE] | > 46 µM
CN1\C(=C(\O)C2=C(C=CC=C2)[S+]1([O-])=O)C(=O)NC3=NOC(=C3)C [ISOXICAM] | > 46 µM
Cc1nnc2n1-c1sc(CCc3ccc(CC(C)C)cc3)cc1C(c1ccccc1Cl)=NC2C (stereo not drawn) [ISRAPAFANT] | > 46 µM

Compound | IC50 of cell viability
CN1C2CCC1CC(NC(=O)n1c(=O)[nH]c3ccccc31)C2 (stereo not drawn) [ITASETRON HYDROCHLORIDE HYDRATE] | > 46 µM
COc1ccc(C(=O)NCc2ccc(OCCN(C)C)cc2)cc1OC [ITOPRIDE HYDROCHLORIDE] | > 46 µM
COc1cc2c(cc1OC)CC(=O)N(CCCN(C)C[C@H]1Cc3cc(OC)c(OC)cc31)CC2 [IVABRADINE HYDROCHLORIDE] | > 46 µM
CC[C@H](C)[C@H]1O[C@]2(CC[C@@H]1C)C[C@@H]1C[C@@H](C/C=C(\C)[C@H](O[C@@H]3C[C@H](OC)[C@H](O[C@@H]4C[C@H](OC)[C@@H](O)[C@H](C)O4)[C@H](C)O3)[C@@H](C)/C=C/C=C3\CO[C@@H]4[C@H](O)C(C)=C[C@@H](C(=O)O1)[C@]34O)O2 [IVERMECTIN] | > 46 µM
CCC1CC2CC3c4[nH]c5ccc(OC)cc5c4CCN(C2)C13 (stereo not drawn) [Ibogaine] | > 46 µM
CC(C)C(=O)c1c(C(C)C)nn2ccccc12 [Ibudilast] | > 46 µM
CC(C)Cc1ccc(CC(=O)O)cc1 [Ibufenac] | > 46 µM
CC(C)Cc1ccc(C(C)C(=O)O)cc1 (stereo not drawn) [Ibuprofen] | > 46 µM
CCCCCCCN(CC)CCCC(O)c1ccc(N[S+](C)(=O)[O-])cc1 (stereo not drawn) [Ibutilide] | > 46 µM
COC1=C(OC)C(=O)C(CCCCCCCCCCO)=C(C)C1=O [Idebenone] | > 46 µM
OC[C@@H]1O[C@H](C[C@@H]1O)N2\C=C(\I)C(=O)NC2=O [Idoxuridine] | > 46 µM
O=C(/C=C/c1ccccc1)NCCO [Idrocilamida] | > 46 µM
O=[P@@]1(NCCCl)OCCCN1CCCl [Ifosfamide] | > 46 µM
CCCCCCCCCCCCCCCCSCC(COC)COP(=O)([O-])OCC[N+](C)(C)C (stereo not drawn) [Ilmofosine] | > 46 µM
COc1cc(C(C)=O)ccc1OCCCN1CCC(c2noc3cc(F)ccc23)CC1 [Iloperidone] | > 46 µM
CC#CCC(C)[C@H](O)/C=C/C1[C@H](O)C[C@@H]2C/C(=C\CCCC(=O)O)C[C@H]12 (stereo partly drawn) [Iloprost] | > 46 µM
C=CCOC(Cn1ccnc1)c1ccc(Cl)cc1Cl (stereo not drawn) [Imazalil sulphate] | > 46 µM
O=C1CC\C(=N/N1)C2=CC=C(C=C2)[N]3C=CN=C3 [Imazodan] | > 46 µM
O=C(NCNC(=O)NC1C(=O)NC(=O)N1CO)NC1C(=O)NC(=O)N1CO (stereo not drawn) [Imidazolidinyl urea] | > 46 µM
CCC(=O)O.CCC(=O)O.O=C(Nc1cccc(C2=NCCN2)c1)Nc1cccc(C2=NCCN2)c1 [Imidocarbe] | > 46 µM
C[C@H](O)[C@H]1[C@@H]2C\C(=C(/N2C1=O)C(O)=O)SCCNC=N [Imipenem] | > 46 µM
C\C(C)=C\[C@@H]1[C@@H](C(=O)OCN2C(=O)CN(CC#C)C2=O)C1(C)C [Imiprothrin] | > 46 µM
CC(C)Cn1cnc2c(N)nc3ccccc3c21 [Imiquimod] | > 46 µM

Reference: the supplement of paper PMC3974653
